One molecule from US20010034454A1, “Description anti-mitotic agents which inhibit tubulin polymerization” (BYLOR UNIVERSITY AND ARIZONA DESEASE CONTROL RESEARCH …, priority 1998, published 2001) can be followed below.

Assay [1] relates to T1, tubulin.
T1 construct: Purified tubulin is obtained from bovine brain cells as described in Hamel and Lin
Kind of assay: Tubulin polymerization assay. In kind it is biochemical, bovine. The note with it: read-out: 50% inhibition of the maximum tubulin assembly rate; inhibition of rate rather than steady state. Here is the method: The ability of the various above described compounds to inhibit tubulin polymerization can be determined by in vitro assay. A suitable assay system is that described by Bai et al. A method for purifying tubulin from bovine brain cells is described by Hamel and Lin.
IC50 values for tubulin polymerization were determined according to the procedure described in Bai et al. Purified tubulin is obtained from bovine brain cells as described in Hamel and Lin. Various amounts of inhibitor were preincubated for 15 minutes at 37° C. with purified tubulin. After the incubation period, the reaction was cooled and GTP was added to induce tubulin polymerization. Polymerization was then monitored in a Gilford spectrophotometer at 350 nm. The final reaction mixtures (0.25 ml) contained 1.5 mg/ml tubulin, 0.6 mg/ml microtubule-associated proteins (MAPs), 0.5 mM GTP, 0.5 mM MgCl2, 4% DMSO and 0.1 M 4-morpholineethanesulfonate buffer (MES, pH 6.4). […]

For assay [2], the system named is tubulin. Briefly: Inhibition of binding of [3H]colchicine to tubulin. The note with it: comparator, concentration not given. The source says:
A measurement of each compound's tubulin affinity may also be determined through the compound's ability to inhibit colchichine-tubulin binding. A suitable assay is that described by Kang et al., involving the use of commercially available tritiated colchicine. Decreases in the amount of [^3H]colchicine-tubulin interaction due to the competitive binding of one of the novel inhibitors of this invention may be measured by autoradiography or scintillation counting.

As to `COc1ccc(/C=C\c2cc(OC)c(OC)c(OC)c2)cc1O` [Combretastatin A-4, reference compound], in assay [1], the IC50 worked out at […]. Besides, in assay [2], the “inhibition of the binding of [3H]colchicine to tubulin” value is listed as “total inhibition”.
